Literature values, collected in US20220192199A1, “METHOD FOR REMOVING BIOFILM” (KAO CORPORATION, priority 2019, published 2022).

Settings: primary dissociation constant

Row | SMILES | pKa1
1 | O=C(O)CCO [3-hydoxypropionic acid] | 4.5
2 | O=C(O)[C@H](O)[C@@H](O)[C@H](O)[C@H](O)CO [gluconic acid] | 3.86
